Measured values as given in patent publication US12442827B2 (UNIVERSITY OF NORTH TEXAS HEALTH SCIENCE CENTER AT FORT …, priority 2019, dated 2025).

Experiments:
Format in all cases: cell-based, human
[1] = system: HCFs; test: LH/FSH ratio in 3D constructs after DHEA, Estrone, Estriol stimulation (Western blot); conditions: HCFs (cells from Healthy individuals), 4 weeks, FIGS. 9A to 9C
Text: (§1) In FIGS. 9A to 9C, healthy corneas were obtained from the National Disease Research Interchange (NDRI). KC corneas were obtained from individuals immediately following corneal transplantation. Inclusion/exclusion criteria for healthy controls required absence of ophthalmic disease, diabetes, or infectious conditions. Tissue from KC patients who had previously undergone collagen crosslinking was excluded. Corneal stromal cells were isolated from healthy (HCFs) and KC (HKCs) corneas. Both HCFs and HKCs were isolated as previously described. Briefly, using a surgical scalpel, the corneal epithelium and endothelium were removed. The corneal stroma was then washed in sterile PBS, cut into small pieces (approximately 2×2 mm), and placed into flasks; the cells were then allowed to adhere. Explants were grown for 2-4 weeks at 37° C./5% CO2/95% relative humidity, using Eagle's Minimum Essential Media (EMEM) supplemented with 10% fetal bovine serum (Atlanta Biologicals, Flowery Branch, GA, USA), and antibiotic/antimycotic (Anti/Anti, Life Technologies, Grand Island, NY, USA). Once confluent, cells were isolated following trypsinization, subcultured, or frozen using standard cryoprotective protocols. Three-dimensional constructs: —HCFs and HKCs were plated at a density of 1×10^6 cells/well on six-well size polycarbonate membrane inserts with 0.4-μm pores (VWR, Radnor, PA, USA). The cells were cultured in EMEM containing 10% FBS, 1% antibiotic, and stimulated with a stable Vitamin C derivative (0.5 mM 2-O-α-D-glucopyranosyl-L-ascorbic acid: Sigma-Aldrich, St. Louis, MO, USA). Cultures were grown for a total of 4 weeks and fresh media was supplied every other day for the duration of the study. Protein extraction and further analysis occurred at the 4-week timepoint.
(§2) All cultures were collected and washed twice with PBS, and total protein was isolated using 1× radioimmunoprecipitation assay (RIPA) buffer (50 mM Tris pH 8, 150 mM NaCl, 1% Triton X-100, and 0.1% SDS) containing a protease inhibitor cocktail (Sigma-Aldrich, St. Louis, MO, USA). Cell lysates were centrifuged at 4° C., and the supernatant was isolated and subjected to a Pierce BCA Protein assay (ThermoScientific, Rockford, IL, USA) for protein concentration quantification. Novex 4-20% Tris-glycine mini WedgeWell format 12-well gels (FisherScientific, Hampton, NH, USA) were electrophoresed at 130 V for 1.5 h, and transferred onto a nitrocellulose membrane at 100 V for 1 hour on ice. B lots were blocked in 5% dry milk (Great Value, Bentonville, AR, USA) for 1 h, at room temperature, with shaking. […] Results were analyzed by normalizing values to the expression of housekeeping antibody β-Actin (Abcam, Cambridge, MA, USA).

[2] = system: HKCs; test: as above; conditions: HKCs (cells from Keratoconus patients), 4 weeks, FIGS. 9A to 9C
Text: as §1, §2

[3] = system: KC cells (HKCs); test: LH/FSH ratio after PIP treatment (Western blot); conditions: PIP 50-500 ng/ml, 48 hours, in a concentration dependent manner, FIG. 12
Experimental: (§3) In FIG. 12, HCFs and HKCs were seeded in 12-well plates at 5×10^5 cells/well in regular media. 24 hours later media was replaced for treatment media (regular media supplemented with the treatment). The treatments consisted on five different concentrations of PIP: 50 ng/ml, 100 ng/ml, 200 ng/ml, 350 ng/ml and 500 ng/ml at a number of four wells per treatment. After 48 hours treatment finished and all the wells were wash with PBS and proteins were extracted using 1 ml of RIPA buffer 1×. Bradford assay (Thermo scientific, IL, USA) was carried out to determine the protein concentration and normalize the samples. For western blot analysis samples were mixed with loading buffer and equal amounts of protein were loaded (25 μg per lane) on a 4-20% Tris-Glycine gel (Novex, Life technologies, Carlsbad, CA) and electrophoresed at 135-140V for 1.5 hour. Each sample was run single. T hereafter, the gel was transferred on to a nitrocellulose membrane (Novex, Nitrocellulose membrane, Life Technologies, Carlsbad, CA), at 100V for 1 hour on ice. Finally, the membranes were blocked in milk (5% milk in TBST; Thermo scientific, IL, USA) for 1 hour and incubated overnight in the rocker at 4° C. with the primary antibody at 1:250 dilution. […] GAPDH (rabbit polyclonal ab9485, Abcam, Cambridge, MA) was used as housekeeping for all the targets at a dilution of 1:1000. […]

[4] = system: Healthy cells (HCFs); test: LH/FSH ratio after PIP treatment (Western blot); conditions: PIP 50-500 ng/ml, 48 hours, in a concentration dependent manner, FIG. 12
Experimental: as §3

Molecule | LH/FSH ratio modulated in vitro [1] | LH/FSH ratio modulated in vitro [2] | LH/FSH ratio modulation [3] | LH/FSH ratio modulation [4]
C[C@]12CC[C@H](O)CC1=CC[C@@H]1[C@@H]2CC[C@]2(C)C(=O)CC[C@@H]12 [DHEA] | moving towards a disease-phenotype | “recovering” towards a healthy phenotype | – | –
C[C@]12CC[C@@H]3c4ccc(O)cc4CC[C@H]3[C@@H]1C[C@@H](O)[C@@H]2O [Estriol] | moving towards a disease-phenotype | “recovering” towards a healthy phenotype | – | –
PIP: hormonally regulated protein, a 17-kDa glycoprotein (protein, UniProt P12273 29-146, looked up) Prolactin-inducible protein: QDNTRKIIIKNFDIPKSVRPNDEVTAVLAVQTELKECMVVKTYLISSIPLQGAFNYKYTACLCDDNPKTFYWDFYTNRTVQIAAVVDVIRELGICPDDAAVIPIKNNRFYTIEILKVE | – | – | modulated | modulated
